Experiments:
PL^pro = details: ref Shin et al., 2020 (GRL-0617); Klemm et al., 2020 (rac5c); cited from earlier work
SARS-CoV-2 [1] = assay: Activity of ACF components against SARS-CoV-2 in vitro; assay type: cell-based
[2] = Pharmacokinetics study of ACF in CD-1 mice; assay type: in vivo
SARS-CoV-2 [3] = details: mouse, in vivo
SARS-CoV-2 [4] = assay type: cell-based
SARS-CoV-2 [5] = assay type: cell-based; remark: listed apart in the source
SARS-CoV-2 [6] = assay type: cell-based; remark: listed apart in the source

Question: Which reported activity (PL^pro) does the source give for COc1cc(CNC(=O)C2CCN(C(C)c3cccc4ccccc34)CC2)ccn1 (racemic) [rac5c] here?
Answer: active at the micromolar range

Question: For Cc1ccc(N)cc1C(=O)N[C@H](C)c1cccc2ccccc12 [GRL-0617], which reported activity (PL^pro) is on record?
Answer: active at the micromolar range

Question: Which “activity against SARS-CoV-2 in vitro” value (SARS-CoV-2 [1]) does the source give for Nc1ccc2cc3ccc(N)cc3nc2c1 [PF, 3,6-diaminoacridine] here?
Answer: active

Question: What about the “levels / exposure in lungs” value ([2]; IV 15 mg/kg and PO 100 mg/kg of commercial ACF) of the same compound?
Answer: very high

Question: And the oral bioavailability ([2]; components of commercial ACF)?
Answer: much higher bioavailability

Question: Which results are given for CCC(CC)COC(=O)[C@H](C)N[P@](=O)(OC[C@H]1O[C@@](C#N)(c2ccc3c(N)ncnn23)[C@H](O)[C@@H]1O)Oc1ccccc1 [remdesivir]?
Answer: adverse effects in mice (SARS-CoV-2 [3]): No adverse effects were observed; decrease of viral loads in the brain (SARS-CoV-2 [3]): 2–3 orders of magnitude; inhibition of SARS-CoV-2 replication (confocal microscopy) (SARS-CoV-2 [4]): inferior compared with 500 nM ACF; elimination of SARS-CoV-2 (confocal microscopy) (SARS-CoV-2 [5]): nearly complete elimination; virus yields in HAE cultures compared with PBS/untreated control (SARS-CoV-2 [6]): significantly inhibited virus yields

Source: PMC8751734 (Cell Chemical Biology, 2022)
